Usually pIC50 stands for −log10 of the IC50, conventionally taken in molar units.

pIC50: −log10 of the molar value. Counter-ions that a name gives are not always drawn. Like-named read-outs stand apart in the source and are kept apart here.

For two molecules, IC50 results are on record in patent publication EP0222996A2, “3-Amino-dihydro(1)benzopyrane and benzothiopyrane” (CIBA-GEIGY AG, priority 1985, dated 1987).

In the assay the target is T1, Serotonin-(S-1A) (Rattus norvegicus, UniProt P19327).
T1 construct: Suspensionen aus Membranmaterial von Rattenhirn; from tissue; host or cells: rat brain membranes
T1 sequence (P19327 1-422): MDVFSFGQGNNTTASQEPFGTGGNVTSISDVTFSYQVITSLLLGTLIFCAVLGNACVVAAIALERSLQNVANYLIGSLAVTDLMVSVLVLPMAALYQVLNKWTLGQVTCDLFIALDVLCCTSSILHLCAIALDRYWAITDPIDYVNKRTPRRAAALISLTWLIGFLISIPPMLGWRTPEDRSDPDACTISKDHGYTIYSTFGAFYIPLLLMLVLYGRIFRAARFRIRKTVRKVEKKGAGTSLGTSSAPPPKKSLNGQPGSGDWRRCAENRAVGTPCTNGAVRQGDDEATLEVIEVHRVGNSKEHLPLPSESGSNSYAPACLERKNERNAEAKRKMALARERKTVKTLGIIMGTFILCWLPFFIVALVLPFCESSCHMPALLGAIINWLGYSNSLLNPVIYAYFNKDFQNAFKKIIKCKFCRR
Put plainly: 3H-serotonin binding assay on rat brain membrane suspensions. More on the design: species or system Ratten. From the text:
Die Serotonin-(S-1A)-Aufnahme, welche für Regulatoren mit Rezeptor-eigenschaften bei Serotonin-Agonisten indiziert ist, kann in-vitro wie folgt in einem Bindungsassay nachgewiesen werden: • Man stellt Suspensionen aus Membranmaterial von Rattenhirn her und inkubiert diese mit ^3H-Serotonin gemäss der Vorschrift von Martin und Sanders-Bush, Naunyn-Schmiederberg Arch. Pharmacol. 321, 165 (1982) und Middlemiss und Fozard Eur. J. Pharmacol., 90, 151 (1983).
In diesem Bindungsassay werden aliquote Teile von […] Zellsuspensionen zu abgepufferten ^3H-Serotonin-Lösungen mit und ohne Wirkstoff gegeben. Die Konzentration an ^3H-Serotonin ist 2 nM und man wertet die zu testenden Wirkstoffe über einen weiten Konzentrationsbereich aus. Die IC50-Werte (Konzentrationen an Wirkstoff, welche zur Hemmung von 50 % 2 nM ^3H-Serotonin nötig sind) werden graphisch bestimmt.

Turning to `CCCN(CCC)C1CSc2cccc(OCC)c2C1` (centres unmarked) [3,4-Dihydro-N,N-dipropyl-5-ethoxy-2H-[1]-benzothiopyran-3-amin-hydrochlorid], the pIC50 (concentration needed to inhibit 50 % of 2 nM 3H-Serotonin, rat brain membranes, determined graphically, read-out: IC50-Werte) is roughly 7.68.
For `CCCN(CCC)C1COc2cccc(OCC)c2C1` (centres unmarked) [5-Aethoxy-N,N-dipropyl-3,4-dihydro-2H-[1]-benzopyran-3-amin-hydrochlorid], the pIC50 was roughly 7.40.
